In US20260200947A1, “FUSED CYCLIC COMPOUNDS AND USE THEREOF” (Jacobio Pharmaceuticals Co., Ltd., priority 2022, published 2026):
Like-named read-outs stand apart in the source and are kept apart here.

Assays:
[1] = target: T1, GDP-KRAS G12D (Homo sapiens, UniProt P01116, G12D); assay: SOS1 catalyzed nucleotide exchange assay, GDP-KRAS G12D; conditions: read-out: Biochemical assays, IC50, KRAS G12D GDP, GDP form K-Ras G12D, TR-FRET
[2] = target: T2, GDP-KRAS G12V (Homo sapiens, UniProt P01116, G12V); assay: SOS1 catalyzed nucleotide exchange assay, GDP-KRAS G12V; conditions: read-out: Biochemical assays, IC50, KRAS G12V GDP, GDP form K-Ras G12V, TR-FRET
[3] = target: T3, GppNp-KRAS G12V (Homo sapiens, UniProt P01116, G12V); assay: biochemical
[4] = Mouse pharmacokinetic study; format: in vivo; conditions: Balb/c mouse (female); for Cl_obs / AUC(0-t) / Cmax: plasma; for AUC(0-t): read-out: AUC0-24 h; for F: 10 mg/kg po vs 3 mg/kg iv; for Cmax: read-out: Cmax
Procedure: The purpose of this study was to evaluate the pharmacokinetic properties of compounds in Balb/c mouse (female) following single dose administration. Six mice were needed for each compound and the six mice were divided into two groups (n=3/group), group A and group B. Mice in group A were treated with a single 3 mg/kg dose of compound (iv). Mice in group B were treated with a single 10 mg/kg dose of compound (po). Foreach mouse in group A, blood samples were collected at the time point of 0.083 h 0.5 h, 1 h, 2 h, 4 h, 8 h and 24 h post-dose. For each mouse in group B, blood samples were collected at the time point of 0.25 h, 0.5 h, 1 h, 2 h, 4 h, 8 h and 24 h post-dose. Blood samples were placed on ice until centrifugation to obtain plasma samples. The plasma samples were stored at −80° C. until analysis. The concentration of compound in plasma samples was determined using a LC-MS/MS method.

[5] = target: T4, GppNp-KRAS G12D (Homo sapiens, UniProt P01116, G12D); assay: biochemical
[6] = system: Capan-2 cells (K-Ras G12V)
[7] = system: AsPC-1 cells (K-Ras G12D)
[8] = target: T2, GDP-KRAS G12V; assay: biochemical
[9] = target: T1, GDP-KRAS G12D; assay: biochemical
[10] = system: SW620 cells (K-Ras G12V)
[11] = system: SW620 cells (K-Ras G12V); assay: Phospho-ERK1/2(THR202/TYR204) HTRF assay, SW620; format: cell-based; conditions: read-out: pERK, IC50, SW620
[12] = target: T4, GppNp-KRAS G12D; assay: GTP-K-Ras and cRAF interaction assay, GppNp-KRAS G12D; conditions: read-out: Biochemical assays, IC50, KRAS G12D GppNp; GppNp-loaded K-Ras G12D, cRAF RBD interaction, HTRF
[13] = target: T3, GppNp-KRAS G12V; assay: GTP-K-Ras and cRAF interaction assay, GppNp-KRAS G12V; conditions: read-out: Biochemical assays, IC50, KRAS G12V GppNp; GppNp-loaded K-Ras G12V, cRAF RBD interaction, HTRF
[14] = Homo sapiens, SW-620, 2 hours incubation

T1 sequence (P01116 1-169 isoform P01116-2 G12D): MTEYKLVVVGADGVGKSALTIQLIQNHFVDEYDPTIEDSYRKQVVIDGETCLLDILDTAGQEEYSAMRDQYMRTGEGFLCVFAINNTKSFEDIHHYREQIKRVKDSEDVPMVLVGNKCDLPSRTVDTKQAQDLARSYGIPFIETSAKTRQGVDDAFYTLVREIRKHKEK
T4 sequence (P01116 1-169 isoform P01116-2 G12D): as above
T2 sequence (P01116 1-169 isoform P01116-2 G12V): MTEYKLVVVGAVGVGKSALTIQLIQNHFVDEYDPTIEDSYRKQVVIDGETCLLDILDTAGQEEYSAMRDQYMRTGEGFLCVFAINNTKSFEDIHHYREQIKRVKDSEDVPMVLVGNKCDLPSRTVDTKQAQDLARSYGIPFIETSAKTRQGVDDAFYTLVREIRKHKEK
T3 sequence (P01116 1-169 isoform P01116-2 G12V): as above

IC50 [6] [nM] | Structure (SMILES) | IC50 [1] [nM] | IC50 [2] [nM] | IC50 [3] [nM] | IC50 [5] [nM] | IC50 [7] [nM] | IC50 [8] [nM] | IC50 [9] [nM] | IC50 [10] [nM] | IC50 [11, 14] [nM] | also measured
– | N#Cc1c(N)sc2c(F)ccc(-c3c(Cl)c4c5c(nc(OCC67CCCN6CC(F)C7)nc5c3F)N3CCCOCC3CO4)c12 (single isomer, unassigned) [Compound 66A] | 169 | 331 | – | – | – | – | – | – | – | –
6.25 | C#Cc1c(F)ccc2cc(N)cc(-c3nc4c5c(nc(OC[C@@]67CCCN6C[C@H](F)C7)nc5c3F)N3CCCOC[C@H]3CO4)c12 [Compound 1] | – | – | – | – | 102 | – | – | 9.37 | 4.43 | Cl_obs ([4]; 3 mg/kg, iv): 6.33 mL/min/kg; AUC(0-t) ([4]; 3 mg/kg, iv): 7990 ng·h/mL; F [4]: 17.2%; AUC(0-t) ([4]; 10 mg/kg, po): 4590 ng·h/mL; Cmax ([4]; 10 mg/kg, po): 1140 ng/mL
– | CCc1c(F)ccc2cc(N)cc(-c3nc4c5c(nc(OC[C@@]67CCCN6C[C@H](F)C7)nc5c3F)N3CCCOC[C@H]3CO4)c12 [Compound 6A] | 1.24 | 3.37 | – | – | 175 | – | – | 26.4 | – | IC50 ([11]; 2 hours incubation): 12.5 nM; IC50 [12]: 497 nM
– | C=Cc1c(F)ccc2cc(N)cc(-c3nc4c5c(nc(OC[C@@]67CCCN6C[C@H](F)C7)nc5c3F)N3CCCOC[C@H]3CO4)c12 [Compound 6B] | 3.83 | 3.82 | – | – | 266 | – | – | 28.3 | – | IC50 ([11]; 2 hours incubation): 16.2 nM; IC50 [12]: 808 nM
– | C#Cc1c(F)ccc2cc(N)cc(-c3nc4c5c(nc(OC[C@@]67CCCN6C[C@H](F)C7)nc5c3F)N3CCCOC[C@H]3[C@H](C)O4)c12 [Compound 18A] | 5.42 | 4.72 | – | – | 391 | – | – | 62 | – | IC50 ([11]; 2 hours incubation): 59.4 nM
– | C#Cc1c(F)ccc2cc(N)cc(-c3nc4c5c(nc(OC[C@@]67CCCN6C[C@H](F)C7)nc5c3F)N3CCCCC[C@@H]3CO4)c12 [Compound 27A] | 47.8 | 65.1 | – | – | – | – | – | – | – | IC50 [12]: > 1000 nM; IC50 [13]: > 1000 nM
– | C#Cc1c(F)ccc2cc(N)cc(-c3nc4c5c(nc(OCC67CCCN6CC(F)C7)nc5c3F)N3CCCCC(F)C3N4C)c12 (centres unmarked) [Compound 40B] | 1.55 | 7.01 | – | – | – | – | – | – | – | IC50 [12]: 162 nM; IC50 [13]: 705 nM
0.453 | C#Cc1c(F)ccc2cc(N)cc(-c3nc4c5c(nc(OC[C@@]67CCCN6C[C@H](F)C7)nc5c3F)N3[C@@H](C)[C@@H](F)COC[C@H]3N4C)c12 [Compound 57] | – | – | – | – | 10 | – | – | 3.22 | – | –
0.404 | C#Cc1c(F)ccc2cc(N)cc(-c3nc4c5c(nc(OC[C@@]67CCCN6C[C@H](F)C7)nc5c3F)N3[C@@H](C)[C@H](F)COC[C@H]3N4C)c12 [Compound 58] | – | – | – | – | 21.6 | – | – | 1.2 | – | –
0.316 | C#Cc1c(F)ccc2cc(N)cc(-c3nc4c5c(nc(OC[C@@]67CCCN6C[C@H](F)C7)nc5c3F)N3[C@@H](COC)CCOC[C@H]3N4C)c12 [Compound 59A] | – | – | – | – | 61.8 | – | – | 13.3 | – | –
– | C#Cc1c(F)ccc2cc(N)cc(-c3nc4c5c(nc(OC[C@@]67CCCN6C[C@H](F)C7)nc5c3F)N3CCCC[C@@H](Cl)[C@@H]3N4C)c12 [Compound 62A] | 703 | 389 | – | – | – | – | – | – | – | IC50 [12]: > 1000 nM; IC50 [13]: > 1000 nM
– | [2H]C1([2H])OCCCN2c3nc(OC[C@@]45CCCN4C[C@H](F)C5)nc4c(F)c(-c5cc(N)cc6ccc(F)c(C#C)c56)nc(c34)N(C)C21 (some centres unmarked) [Compound 76] | – | – | 118 | 96.3 | 76 | 1.14 | 2.84 | 7.86 | 2.08 | –
– | C#Cc1c(F)ccc2cc(N)cc(-c3nc4c5c(nc(OC[C@@]67CCCN6C[C@H](F)C7)nc5c3F)N3[C@@H](C)CCOC[C@H]3N4C3CC3)c12 [Compound 90] | – | – | 898 | 190 | 415 | 1.28 | 3.72 | 40.6 | 9.38 | –
– | C#Cc1c(F)ccc2cc(N)cc(-c3nc4c5c(nc(OC[C@@]67CCCN6C[C@H](F)C7)nc5c3F)N3[C@@H](CC)CCOC[C@H]3N4C)c12 [Compound 94] | – | – | 204 | 224 | 82.5 | 0.576 | 1.17 | 6.09 | 1.71 | –
– | C#Cc1c(F)ccc2cc(N)cc(-c3nc4c5c(nc(OC[C@@]67CCCN6C[C@H](F)C7)nc5c3F)N3CC(F)(F)CCC[C@@H]3N4C)c12 [Compound 106A] | 630 | 226 | – | – | – | – | – | – | – | IC50 [12]: > 1000 nM; IC50 [13]: > 1000 nM
– | C#Cc1c(F)ccc2cc(N)cc(-c3nc4c5c(nc(OC[C@@]67CCCN6C[C@H](F)C7)nc5c3F)N3CCOCCC3N4C)c12 (some centres unmarked) [Compound 114] | – | – | 747 | 295 | 586 | 2.08 | 3.73 | 45.8 | 28.3 | –
– | C[C@H]1CCOC[C@H]2N(C)c3nc(-c4cc(O)cc5ccc(F)c(Cl)c45)c(F)c4nc(OC[C@@]56CCCN5C[C@H](F)C6)nc(c34)N12 [Compound 119] | – | – | 233 | 71.1 | 52.1 | 0.815 | 1.53 | 14.7 | 13 | –
– | CCc1c(F)ccc2cc(N)cc(-c3nc4c5c(nc(OC[C@@]67CCCN6C[C@H](F)C7)nc5c3F)N3[C@@H](C)CCOC[C@H]3N4C)c12 [Compound 127] | – | – | > 1000 | 299 | 173 | 2.13 | 3.87 | 62.6 | 21.9 | –
– | C#Cc1c(F)ccc2cc(N)cc(-c3nc4c5c(nc(OCC67CCCN6CC(F)C7)nc5c3F)N3C(C#N)CCCCC3N4C)c12 (centres unmarked) [Compound 168B] | 503 | 631 | – | – | – | – | – | – | – | IC50 [12]: > 1000 nM; IC50 [13]: > 1000 nM
2.54 | C#Cc1c(F)ccc2cc(N)cc(-c3nc4c5c(nc(OC[C@]67CC(=C)CN6C[C@@H](F)C7)nc5c3F)N3CCCOC[C@H]3N4C)c12 [Compound 171] | – | – | – | – | – | – | – | 43.7 | – | –

Structure (SMILES) | IC50 [6] [nM] | IC50 [1] [nM] | IC50 [2] [nM] | IC50 [3] [nM] | IC50 [5] [nM] | IC50 [7] [nM] | IC50 [8] [nM] | IC50 [9] [nM] | IC50 [10] [nM] | IC50 [11, 14] [nM] | also measured
N#Cc1c(N)sc2c(F)ccc(-c3c(F)c4c5c(nc(OC[C@@]67CCCN6C[C@H](F)C7)nc5c3F)N3CCCOC[C@H]3CO4)c12 (single isomer, unassigned) [Compound 163B] | 6.2 | – | – | 18.3 | 8.04 | 14 | 1.04 | 0.879 | 2.15 | – | Cl_obs ([4]; 3 mg/kg, iv): 1.86 mL/min/kg; AUC(0-t) ([4]; 3 mg/kg, iv): 27300 ng·h/mL; F [4]: 25.3%; AUC(0-t) ([4]; 10 mg/kg, po): 23000 ng·h/mL; Cmax ([4]; 10 mg/kg, po): 5310 ng/mL
C#Cc1c(F)ccc2cc(N)cc(-c3nc4c5c(nc(OC[C@@]67CCCN6C[C@H](F)C7)nc5c3F)N3[C@@H](C)CCOC[C@H]3N4C)c12 [Compound 36] | 0.352 | – | – | 30.4 | 19.7 | 16.9 | 0.189 | 0.339 | 1.2 | 1.01 | –
C#Cc1c(F)ccc2cc(N)cc(-c3nc4c5c(nc(OC[C@@]67CCCN6C[C@H](F)C7)nc5c3F)N3CCCC[C@H](F)[C@H]3N4C)c12 [Compound 40A] | 0.843 | – | – | 36.4 | 9.42 | 2.54 | 0.912 | 0.875 | 2.71 | 0.328 | –
C#Cc1c(F)ccc2cc(N)cc(-c3nc4c5c(nc(OC[C@@]67CCCN6C[C@H](F)C7)nc5c3F)N3[C@H]5C[C@H]5COC[C@H]3N4C)c12 [Compound 159B] | 5.4 | – | – | – | – | 307 | – | – | – | – | –
